21 molecules from patent US20120258960A1, “NOVEL MULTIFUNCTIONAL PEPTIDASE INHIBITORS, ESPECIALLY FOR MEDICAL USE” (IMTM GMBH, priority 2009, published 2012) can be followed below.

Structures are written as SMILES. Bounds are passed on as bounds.

For assay [1], the system named is human peripheral blood mononuclear cells. The assay can be described thus: Inhibition of proliferation of PHA-stimulated mononuclear cells (BrdU incorporation). Format: cell-based. Conditions: PBMC, 1 μg/ml Phytohemagglutinine, 48 hours, test compounds 0.1-250 μM, read-out: MNC IC50. How it is done: (§1) Peripheral blood mononuclear cells (PBMC) from healthy human volunteers were freshly isolated by density gradient centrifugation. T lymphocytes (T cells, Tc) were isolated from PBMC fractions via nylon wool adherence. Cells were cultured in standard cell culture media and stimulated by addition of 1 μg/ml Phytohemagglutinine for 48 hours in 96 well flat-bottom microtitre plates. Test compounds were added at concentration ranges from 0.1-250 μM over the total assay period.
DNA synthesis of proliferating PBMC was assessed by incorporation of nucleotide analogue bromdesoxyuridine (BrdU) and subsequent detection of optical density (OD) at 450 nm.
(§2) Data output was based on raw data and calculation of relative proliferation response in relation to PHA-activated T cells in the absence of test compound (100% control).
(§3) The […] value of proliferation suppression was assessed by graphical evaluation.

For another assay, the system named is T lymphocytes. The assay can be described thus: Inhibition of proliferation of PHA-stimulated T lymphocytes (tritium thymidine incorporation). In kind it is cell-based. Conditions: Homo sapiens, T-lymphocyte, 1 μg/ml Phytohemagglutinine, 48 hours, test compounds 0.1-250 μM, read-out: T cells IC50. How it is done: as §1
DNA synthesis of proliferating T cells was determined by incorporation of radio labelled tritium thymidine and subsequent radio detection.
as §2, §3

Turning to `CCCCCCCCCCCC(=O)OC(C(=O)NCC(C)(C)CNC(=O)CC(N)Cc1cc(F)ccc1F)C(N)Cc1ccccc1` (stereo not drawn) [drawing 253], the IC50 in assay [1] turned out to be 1.7 µM; with T lymphocytes, 2 µM.

As to `CC(C)(CNC(=O)CC(N)Cc1cc(F)ccc1F)CNC(=O)C(O)C(N)Cc1ccccc1` (stereo not drawn) [drawing 232], the IC50 is 200 µM in assay [1] and no less than 200 µM in the assay with T lymphocytes.

For `CCCCCCCC(=O)OC(C(=O)NCCCCNC(=O)CC(N)Cc1cc(F)ccc1F)C(N)Cc1ccccc1` (stereo not drawn) [drawing 256], the IC50 in assay [1] is 10.6 µM; in the assay on T lymphocytes, 19 µM.

`CC(C)(CCNC(=O)CC(N)Cc1cc(F)ccc1F)CNC(=O)C(O)C(N)Cc1ccccc1` (stereo not drawn) [drawing 242]: the IC50 was determined as 63.3 µM in assay [1] and 157 µM with T lymphocytes.

Consider `NC(CC(=O)NCC1(CNC(=O)C(O)C(N)Cc2ccccc2)CCCC1)Cc1cc(F)ccc1F` (stereo not drawn) [drawing 274], for which the IC50 in assay [1] came to 16.2 µM; in the assay with T lymphocytes, 12.9 µM.

On to `CCCCCCCCCCCCCCCC(=O)OC(C(=O)NCC(C)(C)CNC(=O)CC(N)Cc1cc(F)ccc1F)C(N)Cc1ccccc1` (stereo not drawn) [drawing 249], for which the results for the concentration for half-maximal inhibition (IC50) (in assay [1]; with T lymphocytes) were 35.8 µM and 34.4 µM, respectively.

Consider `CC(C)(CNC(=O)CC(N)Cc1cc(F)ccc1F)CNC(=O)C(OC(=O)CCCc1ccccc1)C(N)Cc1ccccc1` (stereo not drawn) [drawing 255], for which the IC50 in assay [1] is 2.5 µM; in the assay on T lymphocytes, 3 µM.

As to `CC(C)(CNC(=O)CC(N)Cc1cc(F)ccc1F)CNC(=O)C(O)C(N)Cc1ccc(O)cc1` (stereo not drawn) [drawing 279], the values for the 50% inhibitory concentration (IC50) (in assay [1]; in the assay on T lymphocytes) were 43.2 µM and 37.6 µM, respectively.

As for `NC(CC(=O)NCCCCNC(=O)C(O)C(N)Cc1ccccc1)Cc1cc(F)ccc1F` (stereo not drawn) [drawing 231], the half-inhibitory concentration (IC50) was 134 µM in assay [1] and no less than 200 µM in the assay with T lymphocytes.

With `NC(CC(=O)N1CCN(C(=O)CC(O)C(N)Cc2ccccc2)CC1)Cc1ccccc1` (stereo not drawn) [drawing 222], the IC50 in assay [1] worked out at 135 µM; in the assay on T lymphocytes, 157 µM.

For `NC(CC(=O)Nc1ccc(NC(=O)C(O)C(N)Cc2ccccc2)cc1)Cc1cc(F)ccc1F` (stereo not drawn) [drawing 245], the IC50 in assay [1] came out at 14.8 µM; in the assay on T lymphocytes, 14.6 µM.

Consider `CCCCCCCCCCCCCCCC(=O)NC(CC(=O)NCC(C)(C)CNC(=O)C(O)C(Cc1ccccc1)NC(=O)CCCCCCCCCCCCCCC)Cc1cc(F)ccc1F` (stereo not drawn) [drawing 268], for which the figures for the half-maximal inhibitory concentration (IC50) (in assay [1]; in the assay with T lymphocytes) were 200 µM and 97.5 µM, respectively.

Consider `CN(CCCNC(=O)OCc1ccccc1)C(=O)C(O)C(N)Cc1ccccc1` (stereo not drawn) [drawing 278], for which the values for the IC50 (in assay [1]; in the assay with T lymphocytes) were 149 µM and no less than 200 µM, respectively.

Turning to `CCC(CC)(CNC(=O)CC(N)Cc1ccccc1)CNC(=O)C(O)C(N)Cc1ccccc1` (stereo not drawn) [drawing 228], the results for the IC50 (in assay [1]; with T lymphocytes) were 49.1 µM and 14.8 µM, respectively.

Take `NC(CC(=O)NCCNC(=O)CC(O)C(N)Cc1ccccc1)Cc1ccccc1` (stereo not drawn) [drawing 224]: the IC50 came out at 120 µM in assay [1] and 157 µM in the assay on T lymphocytes.

`CCCCCCCCCC(=O)OC(C(=O)NCC(C)(C)CNC(=O)CC(N)Cc1cc(F)ccc1F)C(N)Cc1ccccc1` (stereo not drawn) [drawing 254]: the concentration for half-maximal inhibition (IC50) in assay [1] worked out at 2.5 µM; in the assay with T lymphocytes, 3.1 µM.

Regarding `NC(CC(=O)NCCNC(=O)C(O)C(N)Cc1ccccc1)Cc1cc(F)ccc1F` (stereo not drawn) [drawing 221], the IC50 in assay [1] is 200 µM; in the assay with T lymphocytes it was no less than 200 µM.

With `NC(CC(=O)NC(CCCNC(=O)C(O)C(N)Cc1ccccc1)C(=O)O)Cc1cc(F)ccc1F` (stereo not drawn) [drawing 241], the IC50 amounted to 70 µM in assay [1] and 113 µM in the assay with T lymphocytes.

As for `CC(C)(CNC(=O)CC(CN)Cc1ccccc1)CNC(=O)C(O)C(N)Cc1ccccc1` (stereo not drawn) [drawing 240], the IC50 stood at 64.4 µM in assay [1] and 60.7 µM with T lymphocytes.

Take `CC(C)(CNC(=O)CC(N)Cc1ccccc1)CNC(=O)CC(O)C(N)Cc1ccccc1` (stereo not drawn) [drawing 230]: the concentration for half-maximal inhibition (IC50) in assay [1] is 200 µM; with T lymphocytes, no less than 200 µM.

Regarding `CCCC(=O)OC(C(=O)NCC(C)(C)CNC(=O)CC(N)Cc1cc(F)ccc1F)C(N)Cc1ccccc1` (stereo not drawn) [drawing 260], the IC50 in assay [1] worked out at 95.1 µM; in the assay with T lymphocytes it was 55.3 µM.

The term IC50 denotes the midpoint of a concentration-inhibition curve.
